Values of other authors, collected in patent US7193101B2, “Esters with antimicrobial, bioresistant and fungal resistant properties” (TPAT IP, priority 2004, dated 2007).

Tests used:
nematodes = conditions: prior art U.S. Pat. No. 5,013,762
[1] = prior art U.S. Pat. No. 5,866,511
[2] = system: various strains of both gram positive and gram negative bacteria

Row | SMILES | effectiveness for the treatment of nematodes in the soil (nematodes) | effectiveness as a general biocide [1] | average minimum inhibitory concentration ([2]; average over gram positive and gram negative strains) | effective concentration against bacteria ([2]; various strains of gram positive and gram negative bacteria) | antifungal activity (fungi)
1 | O=[N+]([O-])CBr [bromonitromethane] | effective | effective |  |  | 
2 | O=[N+]([O-])C(Br)(CO)CO [BNPD, 2-bromo-2-nitro-propane-1,3-diol] |  |  | around 25 ppm | 1–50 ppm | antifungal
